Results published in ChEMBL document CHEMBL1152286, “Pyrrospirones A and B, apoptosis inducers in HL-60 cells, from an endophytic fungus, Neonectria ramulariae Wollenw KS-246” (Bioorg Med Chem Lett, 2008).
Active and inactive are the calls of the source. The calls are words filed in the database; no cut-off is given here.

Assays:
Type in all cases: functional, cell-based
[1] = test system: LNCaP; experiment: Cytotoxicity against human LNCAP cells by MTT assay
[2] = test system: HL-60; experiment: Cytotoxicity against human HL60 cells by MTT assay
[3] = test system: K562; experiment: Cytotoxicity against human K562 cells by MTT assay
[4] = test system: HL-60; experiment: Induction of apoptosis in human HL60 cells assessed as DNA fragmentation at 30 uM after 18 hrs by agarose-gel electrophoresis

**Q.** With `C=C[C@@H]1C=C(C)[C@H]2[C@@H]3[C@H](Oc4ccc(cc4)C[C@@]4(O)C=C(C(=O)N4)C(=O)[C@@H]13)[C@@H]1[C@@H](C)C[C@@H](C)C[C@]12C` [PYRROSPIRONE C] as the molecule, how does the IC50 [1] read?
**A.** 0.48 µM

**Q.** What about the IC50 [2] of the same molecule?
**A.** 0.12 µM

**Q.** What about the IC50 [3] of the same molecule?
**A.** 0.45 µM

**Q.** `CC1=C[C@H]2[C@@H]3C(=O)[C@]4(C[C@@H]2O)C[C@](O)(Cc2ccc(cc2)O[C@H]2[C@H]3[C@@H]1[C@]1(C)C[C@H](C)C[C@H](C)[C@@H]21)NC4=O` [PYRROSPIRONE B] was tested. Which IC50 [1] did it give?
**A.** 20.2 µM

**Q.** What about the IC50 [2] of the same molecule?
**A.** 7.44 µM

**Q.** And the IC50 [3]?
**A.** 9.27 µM

**Q.** And the Activity [4]?
**A.** Active

**Q.** How did the IC50 [1] turn out when `C=C[C@@H]1C=C(C)[C@H]2[C@@H]3[C@H](Oc4ccc(cc4)C[C@@]4(O)C[C@H](C(=O)N4)C(=O)[C@@H]13)[C@@H]1[C@@H](C)C[C@@H](C)C[C@]12C` [PYRROSPIRONE D] was run?
**A.** 11.7 µM

**Q.** What about the IC50 [2] of the same molecule?
**A.** 6.92 µM

**Q.** And the IC50 [3]?
**A.** 8.64 µM

**Q.** With `CC1=C[C@H]2[C@@H]3C(=O)[C@]4(C[C@H]2O)C[C@](O)(Cc2ccc(cc2)O[C@H]2[C@H]3[C@@H]1[C@]1(C)C[C@H](C)C[C@H](C)[C@@H]21)NC4=O` [PYRROSPIRONE A] as the molecule, how does the IC50 [1] read?
**A.** 18 µM

**Q.** What about the IC50 [2] of the same molecule?
**A.** 14.9 µM

**Q.** What about the IC50 [3] of the same molecule?
**A.** 9.96 µM

**Q.** What about the Activity [4] of the same molecule?
**A.** Active
